The target in data set [1] is Aβ1-40 aggregates (Homo sapiens, UniProt P05067). The data set can be described thus: In vitro competitive binding assay with 3′-[^125I]I-BTA-1 as radioligand, Aβ1-40 aggregates. Particulars: Aβ aggregates 20 nM, 3 h at room temperature, pH 7.2. Here is the method: (§1) Affinity to β-amyloid can be measured by incubation with β-amyloid precipitate and count the bound form after separation by centrifugation. Kd or Ki values are obtained either by saturation binding assay or competition assay.
(§2) Aβ1-40 or Aβ1-42 peptides were incubated in phosphate buffer (pH=7.2) overnight to prepare precipitates as reported in literatures, and then aliquoted and stored at −70[…]. (Klunk, W. E.; Wang, Y.; Huang, G-F.; Debnath, M. L.; Holt D. P.; Mathis, C. A. Uncharged thioflavin-T derivatives bind to amyloid-beta protein with high affinity and readily enter the brain. Life Sci. 2001, 69(13), […]; Zhuang, Z.-P.; Kung, M.-P.; Wilson, A.; Lee, C.-W.; Plossl, K.; Hou, C.; Holtzman, D. M.; Kung, H. F.; Structure-activity relationship of imidazo[1,2-a]pyridines as ligands for detecting β-amyloid plaques in the brain. J. Med. Chem. 2003; 46(2), 237-243)
(§3) The binding affinities of benzothiophene derivatives to Aβ aggregates were evaluated by competitive binding assays using 3′-[^125I]I-BTA-1 as a radioligand. […] Nonspecific binding was determined by incubation in the presence of 10 μM thioflavin-T. The reaction mixtures were filtered through Whatman GF/B glass filters and washed twice with 3 mL of 10% ethanol aliquots. Filters were counted using a Nat well counter. Ki values of the benzothiophene derivatives were then calculated from the results and represented on Table 1.

Data set [2] deals with Aβ1-42 aggregates (Homo sapiens, UniProt P05067). The data set can be described thus: In vitro competitive binding assay with 3′-[^125I]I-BTA-1 as radioligand, Aβ1-42 aggregates. The settings on record: Aβ aggregates 20 nM, 3 h at room temperature, pH 7.2. As to the method:
as §1, §2, §3

Data set [3] in a line: Biodistribution experiment in mice after tail vein injection of ^18F labeled compound. The class given is in vivo, Male ICR mice. As to the method: The penetration of BBB can be estimated by animal experiment. The radiolabeled compounds are intravenously injected to mice, and then the brains are obtained at 2 min, 30 min, and 60 min. The radioactivities of the brain are expressed as the percentage of injected dose per brain weight (gram).
FIG. 2. Biodistribution graph observed in each organ after injection of 2-(4′-[^18F]fluoromethyl)phenyl-1,3-benzothiazole through the mice tail veins. The mice were sacrificed at 2 min, 30 min and 60 min after injection, respectively, and then organs were taken out. The organs were weighed and their radioactivities were measured. The radioactivity distribution in each organ was calculated as the percentage of injected dose per organ weight (gram).
Male ICR mice (n=4/group, 29.9±1.6 g) were injected with 148 kBq/0.1 mL of 2-(4′-[^18F]fluoromethyl)phenyl-1,3-benzothiazole through the tail vein. These injected mice were sacrificed by decapitation 2, 30 and 60 min post-injection. Blood, muscle, lung, liver, spleen, stomach, intestine, brain, and bone were rapidly separated, weighed and counted using a NaI well counter. Results are expressed as percentages of the injected dose per gram of tissue (% ID/g), and represented in FIG. 2. Brain uptake at […] was 5.62±0.28% ID/g and ratio to 30 min was 3.75±0.97, which represent rapid uptake and wash out to and from normal brain.
A comparative mice biodistribution study using 2-(4′-O-(2′-[^18F]Fluoroethyl)hydroxyphenyl)benzothiophene and 2-(4′-O-(3′-[^18F]Fluoropropyl)hydroxyphenyl) benzothiophene was performed according to the same procedure with above Experiment 2.

Aβ1-42 aggregates, sequence (P05067 672-713 limits assumed): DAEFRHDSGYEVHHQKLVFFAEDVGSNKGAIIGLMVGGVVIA
Aβ1-40 aggregates, sequence (P05067 672-711 limits assumed): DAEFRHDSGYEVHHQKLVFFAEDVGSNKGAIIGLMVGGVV

By Ki is commonly meant the equilibrium dissociation constant of an inhibitor or competing ligand from its target. A high value points to lower affinity. Take “2-(4′-fluoromethyl)phenyl-1,3-benzothiazole”: the Ki in data set [1] came to 26.9 ± 5.04 nM; in data set [2] it was 28.1 ± 4.44 nM.

In data set [3] (2 min post-injection), `[18F]CCOc1ccc(-c2cc3ccccc3s2)cc1` [2-(4′-O-(2′-[^18F]Fluoroethyl)hydroxyphenyl)benzothiophene] returned a Blood uptake of 3.5 ± 0.2 % ID/g, a Bone uptake of 2.5 ± 0.2 % ID/g, a Brain uptake of 5.2 ± 0.4 % ID/g and a Fat uptake of 0.9 ± 0.3 % ID/g. In data set [3] (2 min post-injection), this compound returned a Heart uptake of 8.8 ± 1.0 % ID/g, an Intestine uptake of 2.7 ± 0.2 % ID/g, a Kidney uptake of 11.8 ± 0.9 % ID/g and a Liver uptake of 9.3 ± 1.5 % ID/g. Moreover, in data set [3] (2 min post-injection), the Lung uptake was found to be 9.3 ± 1.1 % ID/g, the Muscle uptake was 2.9 ± 0.3 % ID/g, the Spleen uptake is recorded as 4.4 ± 0.8 % ID/g and the Stomach uptake came out at 2.1 ± 0.7 % ID/g. In data set [3] (30 min post-injection), this compound returned a Blood uptake of 3.8 ± 0.4 % ID/g, a Bone uptake of 3.3 ± 0.2 % ID/g, a Brain uptake of 5.2 ± 0.5 % ID/g and a Fat uptake of 2.1 ± 1.0 % ID/g. Besides, in data set [3] (30 min post-injection), the Heart uptake is 3.2 ± 0.2 % ID/g, the Intestine uptake was found to be 7.2 ± 0.6 % ID/g, the Kidney uptake came to 4.1 ± 0.7 % ID/g and the Liver uptake is on record as 3.9 ± 0.7 % ID/g. Further, in data set [3] (30 min post-injection), the Lung uptake stood at 3.4 ± 0.6 % ID/g, the Muscle uptake was determined as 2.7 ± 0.3 % ID/g, the Spleen uptake stood at 2.7 ± 0.5 % ID/g and the Stomach uptake is 2.5 ± 0.3 % ID/g.

In data set [3] (2 min post-injection), `[18F]CCCOc1ccc(-c2cc3ccccc3s2)cc1` [2-(4′-O-(3′-[^18F]Fluoropropyl)hydroxyphenyl)benzothiophene] returned a Blood uptake of 3.3 ± 0.5 % ID/g, a Bone uptake of 2.2 ± 0.2 % ID/g, a Brain uptake of 3.3 ± 0.2 % ID/g and a Fat uptake of 0.7 ± 0.1 % ID/g. In data set [3] (2 min post-injection), this compound returned a Heart uptake of 11.9 ± 0.6 % ID/g, an Intestine uptake of 2.4 ± 0.2 % ID/g, a Kidney uptake of 13.5 ± 1.2 % ID/g and a Liver uptake of 17.0 ± 0.6 % ID/g. In addition, in data set [3] (2 min post-injection), the Lung uptake turned out to be 10.2 ± 1.4 % ID/g, the Muscle uptake is recorded as 3.0 ± 0.2 % ID/g, the Spleen uptake is given as 4.1 ± 1.2 % ID/g and the Stomach uptake came out at 1.8 ± 0.5 % ID/g. Further, in data set [3] (30 min post-injection), the Blood uptake stood at 1.4 ± 0.1 % ID/g, the Bone uptake was 10.7 ± 0.6 % ID/g, the Brain uptake came to 4.0 ± 0.4 % ID/g and the Fat uptake is on record as 1.9 ± 0.4 % ID/g. In data set [3] (30 min post-injection), this compound displayed a Heart uptake of 1.8 ± 0.3 % ID/g, an Intestine uptake of 5.5 ± 0.4 % ID/g, a Kidney uptake of 4.4 ± 0.4 % ID/g and a Liver uptake of 6.1 ± 0.6 % ID/g. In data set [3] (30 min post-injection), this compound showed a Lung uptake of 2.2 ± 0.6 % ID/g, a Muscle uptake of 1.6 ± 0.1 % ID/g, a Spleen uptake of 1.5 ± 0.2 % ID/g and a Stomach uptake of 1.0 ± 0.4 % ID/g.

In the case of `[18F]Cc1ccc(-c2nc3ccccc3s2)cc1` [2-(4′-[^18F]fluoromethyl)phenyl-1,3-benzothiazole], the “Bone uptake (in words; in vivo defluorination)” value in data set [3] (tail vein) was “High bone uptake”. In data set [3] (tail vein, "at min" post-injection (time figure missing)), this compound displayed a Brain uptake of 5.62±0.28 % ID/g. The “Brain uptake ratio to 30 min” value in data set [3] (tail vein, early brain uptake / 30 min) turned out to be 3.75±0.97.

Consider `FCc1ccc(-c2nc3ccccc3o2)cc1` [Benzoxaxole, 2-(4′-fluoromethyl)phenyl-1,3-benzoxazole], for which the Ki in data set [1] was found to be 75.7 ± 43.2 nM; in data set [2], 59.9 ± 5.03 nM.

(Values after US20080299041A1, “HETEROCYCLIC INDENE DERIVATIVES AND THEIR RADIOISOTOPE LABELED COMPOUNDS FOR IMAGING BETA-AMYLOID DEPOSITION” (SEOUL NATIONAL UNIVERSITY INDUSTRY FOUNDATION, priority 2007, published 2008).)
